Calls of active or inactive are those of the source. The calls are words filed in the database; no cut-off is given here.
What was measured:
[1] = Selectivity index, ratio of IC50 for african green monkey Vero cells to IC50 for static antileishmanial activity against Leishmania donovani 9515 (MHOM/IN/95/9151) amastigote; type: toxicity, cell-based; details: read-out: Ratio IC50
Leishmania major [2] = assay: Leishmanicidal activity against Leishmania major NIH-S (MHOM/SN/74/Seidman) amastigote incubated for 48 hrs by resazurin dye based plate reader assay; type: functional, organism-based
[3] = Cytotoxicity against MDBK cells incubated for 72 hrs by CCK8 assay; type: toxicity, cell-based, Bos taurus; details: cattle; for CC50 at 72 h: MDBK cells
[4] = system: Trypanosoma brucei rhodesiense; assay: Trypanocidal activity against Trypanosoma brucei rhodesiense IL1501 incubated for 72 hrs by CellTiter-Glo reagent based […] analysis; type: functional, organism-based; details: IL1501, 72 h
[5] = Selectivity index, ratio of IC50 for human THP-1 cells to IC50 for Leishmania major IR-173 (MHO-M/IR/-173) promastigote; type: toxicity, cell-based; details: read-out: Ratio IC50
Leishmania donovani [6] = assay: Antileishmanial activity against Leishmania donovani 9515 (MHOM/IN/95/9151) promastigote incubated for 48 hrs by resazurin dye based plate reader assay; type: functional, organism-based
[7] = Selectivity index, ratio of CC50 for MDBK to IC50 for Trypanosoma congolense IL3000; type: toxicity, cell-based; details: cattle, MDBK cells; read-out: Ratio CC50/IC50
[8] = system: Trypanosoma brucei brucei; assay: Trypanocidal activity against Trypanosoma brucei brucei GUTat3.1 incubated for 72 hrs by CellTiter-Glo reagent based […] analysis; type: functional, organism-based; details: GUTat3.1, 72 h
Trypanosoma evansi = assay: Trypanocidal activity against Trypanosoma evansi Tansui incubated for 72 hrs by CellTiter-Glo reagent based […] analysis; type: functional, organism-based
[9] = Selectivity index, ratio of IC50 for african green monkey Vero cells to IC50 for Leishmania major IR-173 (MHO-M/IR/-173) promastigote; type: toxicity, cell-based; details: read-out: Ratio IC50
Leishmania major [10] = assay: Antileishmanial activity against Leishmania major NIH-S (MHOM/SN/74/Seidman) amastigote infected in THP-1 cells assessed as inhibition of parasite growth incubated for 72 hrs by resazurin dye based plate reader assay; type: functional, organism-based; details: THP-1, 72 h
[11] = system: Trypanosoma brucei gambiense; assay: Trypanocidal activity against Trypanosoma brucei gambiense IL1922 incubated for 72 hrs by CellTiter-Glo reagent based […] analysis; type: functional, organism-based; details: IL1922, 72 h
Trypanosoma equiperdum = assay: Trypanocidal activity against Trypanosoma equiperdum IVM-t1 incubated for 72 hrs by CellTiter-Glo reagent based […] analysis; type: functional, organism-based; details: IVM-t1, 72 h
Leishmania donovani [12] = assay: Leishmanicidal activity against Leishmania donovani 9515 (MHOM/IN/95/9151) amastigote infected in THP-1 cells incubated for 72 hrs by resazurin dye based plate reader assay; type: functional, organism-based; details: THP-1, 72 h
Leishmania major [13] = assay: Antileishmanial activity against Leishmania major IR-173 (MHO-M/IR/-173) promastigote incubated for 48 hrs by resazurin dye based plate reader assay; type: functional, organism-based
[14] = Selectivity index, ratio of IC50 for human THP-1 cells to IC50 for static antileishmanial activity against Leishmania donovani 9515 (MHOM/IN/95/9151) amastigote; type: toxicity, cell-based; details: read-out: Ratio IC50
[15] = Cytotoxicity against human […]-differentiated THP-1 cells incubated for 72 hrs by resazurin dye based assay; type: toxicity, cell-based
[16] = Cytotoxicity against green monkey Vero cells incubated for 48 hrs by resazurin dye based assay; type: toxicity, cell-based; details: African green monkey (Chlorocebus sabaeus)
Trypanosoma congolense [17] = assay: Trypanocidal activity against Trypanosoma congolense IL3000 incubated for 72 hrs by CellTiter-Glo reagent based […] analysis; type: functional, organism-based; details: IL3000, 72 h
[18] = Selectivity index, ratio of IC50 for african green monkey Vero cells to IC50 for leishmanicidal activity against Leishmania donovani 9515 (MHOM/IN/95/9151) amastigote; type: toxicity, cell-based; details: read-out: Ratio IC50
Leishmania donovani [19] = assay: Antileishmanial activity against Leishmania donovani 9515 (MHOM/IN/95/9151) amastigote infected in THP-1 cells assessed as inhibition of parasite growth incubated for 72 hrs by resazurin dye based plate reader assay; type: functional, organism-based; details: THP-1, 72 h
[20] = Selectivity index, ratio of IC50 for human THP-1 cells to IC50 for leishmanicidal activity against Leishmania donovani 9515 (MHOM/IN/95/9151) amastigote; type: toxicity, cell-based; details: read-out: Ratio IC50
[21] = Selectivity index, ratio of IC50 for african green monkey Vero cells to IC50 for Leishmania donovani 9515 (MHOM/IN/95/9151) promastigote; type: toxicity, cell-based; details: read-out: Ratio IC50
[22] = Selectivity index, ratio of CC50 for MDBK to IC50 for Trypanosoma brucei rhodesiense IL1501; type: toxicity, cell-based; details: cattle, MDBK cells; read-out: Ratio CC50/IC50
[23] = Selectivity index, ratio of CC50 for MDBK to IC50 for Trypanosoma evansi Tansui; type: toxicity, cell-based; details: cattle, MDBK cells; read-out: Ratio CC50/IC50
[24] = Selectivity index, ratio of CC50 for MDBK to IC50 for Trypanosoma brucei gambiense IL1922; type: toxicity, cell-based; details: cattle, MDBK cells; read-out: Ratio CC50/IC50
[25] = Selectivity index, ratio of CC50 for MDBK to IC50 for Trypanosoma brucei brucei GUTat3.1; type: toxicity, cell-based; details: cattle, MDBK cells; read-out: Ratio CC50/IC50
[26] = Selectivity index, ratio of IC50 for human THP-1 cells to IC50 for Leishmania donovani 9515 (MHOM/IN/95/9151) promastigote; type: toxicity, cell-based; details: read-out: Ratio IC50
[27] = Selectivity index, ratio of CC50 for MDBK to IC50 for Trypanosoma equiperdum IVM-t1; type: toxicity, cell-based; details: cattle, MDBK cells; read-out: Ratio CC50/IC50
[28] = Selectivity index, ratio of IC50 for african green monkey Vero cells to IC50 for Leishmania donovani; type: toxicity, cell-based; details: read-out: Ratio IC50
Trypanosoma congolense [29] = assay: Antitrypanosomal activity against Trypanosoma congolense IL3000 infected in BALB/c mouse assessed as increase in animal survival time at 100 mg/kg, po or 10 mg/kg, ip administered for 7 consecutive days starting from 6 days post infection (reference value: 9 day); type: functional; details: time 7 day
[30] = Selectivity index, ratio of IC50 for human THP-1 cells to IC50 for Trypanosoma cruzi Tulahuen C4 strain; type: toxicity, cell-based; details: read-out: Ratio IC50
[31] = Selectivity index, ratio of IC50 for african green monkey Vero cells to IC50 for Trypanosoma cruzi Tulahuen C4 strain; type: toxicity, cell-based; details: read-out: Ratio IC50
[32] = Selectivity index, ratio of IC50 for african green monkey Vero cells to IC50 for static antileishmanial activity against Leishmania major NIH-S (MHOM/SN/74/Seidman) amastigote; type: toxicity, cell-based; details: read-out: Ratio IC50
[33] = Selectivity index, ratio of IC50 for african green monkey Vero cells to IC50 for leishmanicidal activity against Leishmania major NIH-S (MHOM/SN/74/Seidman) amastigote; type: toxicity, cell-based; details: read-out: Ratio IC50
[34] = Selectivity index, ratio of IC50 for human THP-1 cells to IC50 for static antileishmanial activity against Leishmania major NIH-S (MHOM/SN/74/Seidman) amastigote; type: toxicity, cell-based; details: read-out: Ratio IC50
Trypanosoma cruzi [35] = assay: Antitrypanosomal activity against Trypanosoma cruzi Tulahuen C4 strain trypomastigotes assessed as growth inhibition at 20 uM incubated for 48 hrs by resazurin dye based assay; type: functional; design: scale not given: the % may be the effect or the level left
Trypanosoma cruzi [36] = assay: Antitrypanosomal activity against Trypanosoma cruzi Tulahuen C4 strain amastigotes infected in Vero cells incubated for 72 hrs by beta-galactosidase based assay; type: functional, organism-based
Trypanosoma congolense [37] = assay: Antitrypanosomal activity against Trypanosoma congolense IL3000 infected in BALB/c mouse assessed as animal survival at 100 mg/kg, po or 10 mg/kg, ip administered for 7 consecutive days starting from 6 days post infection and measured after 13 days post infection; type: functional, organism-based; details: time 7.0 day
[38] = Selectivity index, ratio of IC50 for human THP-1 cells to IC50 for leishmanicidal activity against Leishmania major NIH-S (MHOM/SN/74/Seidman); type: toxicity, cell-based; details: read-out: Ratio IC50

Row | Structure (SMILES) | selectivity ratio [1] | IC50 (Leishmania major [2]) [µM] | CC50 at 72 h [3] [µM] | IC50 [4] [µM] | selectivity ratio [5] | IC50 (Leishmania donovani [6]) [µM] | selectivity ratio [7] | IC50 [8] [µM] | IC50 (Trypanosoma evansi) [µM] | selectivity ratio [9] | IC50 [11] [µM] | IC50 (Trypanosoma equiperdum) [µM] | IC50 (Leishmania donovani [12]) [µM] | selectivity ratio [14] | IC50 at 72 h [15] [µM] | IC50 at 48 h [16] [µM] | IC50 (Trypanosoma congolense [17]) [µM] | selectivity ratio [18] | IC50 (Leishmania donovani [19]) [µM] | selectivity ratio [20] | further results
1 | C#CCn1cc(\C=N/N=C/C=C/c2ccccc2)c2cc([N+](=O)[O-])ccc21 | 75 | > 10 | 9.2 | > 70.2 | 4 | > 10 | > 29.9 | > 70.2 | > 70.2 | 3 | > 70.2 | > 70.2 | 0.69 | 75 | 35.8 | 24.5 | 9.4 | 37 | 0.34 | 52 | IC50 (Leishmania major [10]): > 10 µM; IC50 (Leishmania major [13]): 8.08 µM
2 | C#CCn1cc(/C=N/N=C\C=C(C)C)c2cc([N+](=O)[O-])ccc21 | 152 | – | – | 34.7 | – | 10 | 2.41 | 37.4 | 39.6 | – | 33.4 | 27 | 1.03 | 175 | 92.6 | 80.3 | 28.3 | 78 | 0.53 | 90 | selectivity ratio [21]: 8; selectivity ratio [22]: 1.96; selectivity ratio [23]: 1.72; CC50 ([3]; mdbk, 72 h): > 325 µM; selectivity ratio [24]: 2.04; selectivity ratio [25]: 1.82; selectivity ratio [26]: 9; selectivity ratio [27]: 2.53
3 | O=Cc1ccc([N+](=O)[O-])o1 | – | – | – | – | – | – | – | – | – | – | – | – | – | – | – | – | – | – | – | – | selectivity ratio [28]: 2
4 | C#CCn1cc(/C=N\N=C\c2ccco2)c2cc([N+](=O)[O-])ccc21 | > 112 | > 10 | > 312 | > 78 | 20 | > 10 | – | > 78 | > 78 | 20 | > 78 | > 78 | 2.58 | 112 | > 100 | > 100 | > 78 | > 39 | 0.89 | > 39 | IC50 (Leishmania major [10]): > 10 µM; IC50 (Leishmania major [13]): 4.9 µM
5 | C#CCn1cc(/C=N\N=C\c2ccc([N+](=O)[O-])o2)c2cc([N+](=O)[O-])ccc21 | 2 | 1.41 | > 274 | 0.75 | 829 | 0.2 | > 3280 | 1.24 | 1.96 | 106 | 0.68 | 1.88 | 3.29 | 20 | 66.3 | 8.07 | 0.08 | 2 | 3.27 | 20 | Survival (Trypanosoma congolense [29]): 9.5 days; selectivity ratio [21]: 40; selectivity ratio [30]: 55; selectivity ratio [22]: > 364; selectivity ratio [23]: > 140; selectivity ratio [31]: 6; selectivity ratio [32]: 7; selectivity ratio [33]: 6; selectivity ratio [34]: 60; IC50 (Leishmania major [10]): 1.09 µM; selectivity ratio [24]: > 405; Activity (Trypanosoma cruzi [35]): 22%; IC50 (Trypanosoma cruzi [36]): 1.21 µM; IC50 (Leishmania major [13]): 0.08 µM; Activity (Trypanosoma congolense [37]): inactive; selectivity ratio [25]: > 222; selectivity ratio [26]: 332; selectivity ratio [38]: 47; selectivity ratio [27]: > 146

From ChEMBL document CHEMBL6083269, “Design, synthesis, in vitro and in vivo trypanosomaticidal efficacy of novel 5-nitroindolylazines” (Eur J Med Chem, 2024)
